# Results reported in patent US10878939B2, “Methods and compositions for personalized pain management” (Children's Hospital Medical Center, priority 2014, dated 2020).
# Columns and labels:
# [1] = test system: children undergoing tonsillectomy; assay: Analgesic effectiveness outcomes by sex and morphine dose (Example 6)
# [2] = test system: children undergoing tonsillectomy; assay: Respiratory depression and prolonged PACU stay due to RD by ABCB1 genotype (Example 7)
# Text: Children 6-15 years undergoing elective outpatient tonsillectomy were eligible for the study and recruited on the day of surgery. […] Clinical criteria for OSA designation included sleep disordered breathing with a history of snoring and either sleep pauses lasting more than 10 seconds or daytime drowsiness. Children were excluded from the study if they or their parents were non-English speaking.
# All participants received standard perioperative care. Anesthesia was induced using sevoflurane followed by a propofol (2 mg/kg) bolus to facilitate endotracheal intubation. Anesthesia was maintained with sevoflurane without the use of neuromuscular blockade. […] All children receive prophylactic ondansetron (0.1 mg/kg) and dexamethasone (0.1 mg/kg) intraoperatively.
# Duration of PACU stay (time to achieve PACU discharge readiness) was defined as the duration in PACU before achieving the following discharge criteria. […] This is discharge readiness time is different from actual PACU discharge time as delays due to social reasons (e.g. waiting for car rides) were not included.
# Metrics for analgesic effectiveness and opioid-related adverse effects were recorded for each participant. For the metrics for opioid-related adverse effects, this study focused on two clinically and economically important outcomes: clinical RD and prolonged PACU stay (>90 minutes) secondary to respiratory depression assessed consistently by the research coordinator.
# Blood was collected from each participant in the operating room under anesthesia and the DNA was isolated the same day and stored at −20 degree Celsius. Batched genotyping was performed after clinical data was entered on all study participants. The TaqMan allelic discrimination system assays and Genotyper Softerware Version 1.0.1 (Life Technologies, Applied Biosystems, Forest City, Calif.) were used to analyse and report the following ABCB1 polymorphisms: rs1045642, rs2032582, rs1128503, rs2229109, and rs9282564.
# Prior to analysis, data qualities were examined. For the ABCB1 variants, allelic and genotype frequencies were assessed in white and black patients separately, and Hardy Weinberg equilibrium (HWE) was tested. To analyze binary outcomes (RD, prolonged PACU secondary to RD and analgesic intervention need), logistic regression was performed. […] Thus, maximum FLACC scores were analyzed using a zero-inflated negative binomial model to appropriately capture the distribution of this variable. […] To select the best fitting model, log likelihood, Akaike and Bayesian Information criterion were compared, and residuals were examined. […] To assess the single SNP association with the outcomes, additive models were used, in which the genotypes were recoded and tested as continuous variables. For the four bi-allelic SNPs, genotypes were recoded to 0, 1 and 2 according to the number of minor alleles. For rs2032582, GG genotype was recoded as 0; GA and GT genotypes were combined and recoded as 1, and TT and TA genotypes as 2. Statistical modeling was conducted with white and black patients separately and combined. When races were combined, the effects of race and race*SNP interaction were tested.
# [3] = F, intra-op morphine >0.2 mg/kg
# [4] = F, intra-op morphine >0.1-0.2 mg/kg
# [5] = F, intra-op morphine ≤0.1 mg/kg
# [6] = M, intra-op morphine >0.2 mg/kg
# [7] = M, intra-op morphine >0.1-0.2 mg/kg
# [8] = M, intra-op morphine ≤0.1 mg/kg
compound,measurement,setting,value
CN1CC[C@]23c4c5ccc(O)c4O[C@H]2[C@@H](O)C=C[C@H]3[C@H]1C5 [morphine],"Analgesic intervention need in PACU, number of cases","[1]; F, All",67
same,"Analgesic intervention need in PACU, proportion","[1]; F, All",(31%)
same,"Maximum FLACC pain score, median","[1]; F, All",2
same,"Maximum NRS pain score, median","[1]; F, All",6
same,"Number of analgesic interventions, median","[1]; F, All",1
same,"Post-operative morphine, mean ± SD","[1]; F, All",0.09 ± 0.05 mg/kg
same,"Prolonged PACU stay due to pain, number of cases","[1]; F, All",37
same,"Prolonged PACU stay due to pain, proportion","[1]; F, All",(17%)
same,"Analgesic intervention need in PACU, number of cases","[1]; F, OSA No",35
same,"Analgesic intervention need in PACU, proportion","[1]; F, OSA No",(28%)
same,"Maximum FLACC pain score, median","[1]; F, OSA No",2
same,"Maximum NRS pain score, median","[1]; F, OSA No",6
same,"Number of analgesic interventions, median","[1]; F, OSA No",1
same,"Post-operative morphine, mean ± SD","[1]; F, OSA No",0.08 ± 0.04 mg/kg
same,"Prolonged PACU stay due to pain, number of cases","[1]; F, OSA No",21
same,"Prolonged PACU stay due to pain, proportion","[1]; F, OSA No",(17%)
same,"Analgesic intervention need in PACU, number of cases","[1]; F, OSA Yes",32
same,"Analgesic intervention need in PACU, proportion","[1]; F, OSA Yes",(34%)
same,"Maximum FLACC pain score, median","[1]; F, OSA Yes",2
same,"Maximum NRS pain score, median","[1]; F, OSA Yes",5
same,"Number of analgesic interventions, median","[1]; F, OSA Yes",1
same,"Post-operative morphine, mean ± SD","[1]; F, OSA Yes",0.09 ± 0.06 mg/kg
same,"Prolonged PACU stay due to pain, number of cases","[1]; F, OSA Yes",16
same,"Prolonged PACU stay due to pain, proportion","[1]; F, OSA Yes",(17%)
same,"Analgesic intervention need in PACU, number of cases (%)",[1]; [3],22 (51)
same,"Maximum FLACC pain score, median (IQR)",[1]; [3],1 (0-5)
same,"Maximum NRS pain score, median (IQR)",[1]; [3],6 (3-9)
same,"Number of analgesic interventions, median (IQR)",[1]; [3],1 (0-1)
same,"Post-operative morphine, mean ± SD",[1]; [3],0.10 ± 0.05 mg/Kf
same,"Prolonged PACU stay due to pain, number of cases (%)",[1]; [3],12 (28)
same,"Analgesic intervention need in PACU, number of cases (%)",[1]; [4],40 (61)
same,"Maximum FLACC pain score, median (IQR)",[1]; [4],2 (0-5)
same,"Maximum NRS pain score, median (IQR)",[1]; [4],5 (2-8)
same,"Number of analgesic interventions, median (IQR)",[1]; [4],1 (0-1)
same,"Post-operative morphine, mean ± SD",[1]; [4],0.09 ± 0.05 mg/Kf
same,"Prolonged PACU stay due to pain, number of cases (%)",[1]; [4],22 (33)
same,"Analgesic intervention need in PACU, number of cases (%)",[1]; [5],5 (100)
same,"Maximum FLACC pain score, median (IQR)",[1]; [5],3 (3-4)
same,"Maximum NRS pain score, median (IQR)",[1]; [5],8 (6-10)
same,"Number of analgesic interventions, median (IQR)",[1]; [5],1 (1-2)
same,"Post-operative morphine, mean ± SD",[1]; [5],0.07 ± 0.03 mg/Kf
same,"Prolonged PACU stay due to pain, number of cases (%)",[1]; [5],3 (60)
same,"Analgesic intervention need in PACU, number of cases","[1]; M, All",61
same,"Analgesic intervention need in PACU, proportion","[1]; M, All",(28%)
same,"Maximum FLACC pain score, median","[1]; M, All",2
same,"Maximum NRS pain score, median","[1]; M, All",5
same,"Number of analgesic interventions, median","[1]; M, All",1
same,"Post-operative morphine, mean ± SD","[1]; M, All",0.09 ± 0.05 mg/kg
same,"Prolonged PACU stay due to pain, number of cases","[1]; M, All",36
same,"Prolonged PACU stay due to pain, proportion","[1]; M, All",(16%)
same,"Analgesic intervention need in PACU, number of cases","[1]; M, OSA No",35
same,"Analgesic intervention need in PACU, proportion","[1]; M, OSA No",(28%)
same,"Maximum FLACC pain score, median","[1]; M, OSA No",2
same,"Maximum NRS pain score, median","[1]; M, OSA No",6
same,"Number of analgesic interventions, median","[1]; M, OSA No",1
same,"Post-operative morphine, mean ± SD","[1]; M, OSA No",0.09 ± 0.05 mg/kg
same,"Prolonged PACU stay due to pain, number of cases","[1]; M, OSA No",24
same,"Prolonged PACU stay due to pain, proportion","[1]; M, OSA No",(19%)
same,"Analgesic intervention need in PACU, number of cases","[1]; M, OSA Yes",26
same,"Analgesic intervention need in PACU, proportion","[1]; M, OSA Yes",(27%)
same,"Maximum FLACC pain score, median","[1]; M, OSA Yes",4
same,"Maximum NRS pain score, median","[1]; M, OSA Yes",5
same,"Number of analgesic interventions, median","[1]; M, OSA Yes",1
same,"Post-operative morphine, mean ± SD","[1]; M, OSA Yes",0.09 ± 0.05 mg/kg
same,"Prolonged PACU stay due to pain, number of cases","[1]; M, OSA Yes",12
same,"Prolonged PACU stay due to pain, proportion","[1]; M, OSA Yes",(13%)
same,"Analgesic intervention need in PACU, number of cases (%)",[1]; [6],20 (54)
same,"Maximum FLACC pain score, median (IQR)",[1]; [6],2 (0-5)
same,"Maximum NRS pain score, median (IQR)",[1]; [6],6 (4-7)
same,"Number of analgesic interventions, median (IQR)",[1]; [6],1 (0-1)
same,"Post-operative morphine, mean ± SD",[1]; [6],0.09 ± 0.05 mg/Kf
same,"Prolonged PACU stay due to pain, number of cases (%)",[1]; [6],12 (32)
same,"Analgesic intervention need in PACU, number of cases (%)",[1]; [7],36 (58)
same,"Maximum FLACC pain score, median (IQR)",[1]; [7],3 (1-7)
same,"Maximum NRS pain score, median (IQR)",[1]; [7],5 (2-8)
same,"Number of analgesic interventions, median (IQR)",[1]; [7],1 (0-1)
same,"Post-operative morphine, mean ± SD",[1]; [7],0.10 ± 0.05 mg/Kf
same,"Prolonged PACU stay due to pain, number of cases (%)",[1]; [7],22 (35)
same,"Analgesic intervention need in PACU, number of cases (%)",[1]; [8],5 (83)
same,"Maximum FLACC pain score, median (IQR)",[1]; [8],3 (1-5)
same,"Maximum NRS pain score, median (IQR)",[1]; [8],6 (5-9)
same,"Number of analgesic interventions, median (IQR)",[1]; [8],1 (1-2)
same,"Post-operative morphine, mean ± SD",[1]; [8],0.07 ± 0.04 mg/Kf
same,"Prolonged PACU stay due to pain, number of cases (%)",[1]; [8],2 (33)
same,sex-specific morphine effects on analgesic outcomes,[1]; univariate or multivariate modeling,no evidence of sex-specific morphine effects
same,patients with RD,[2]; 263 patients,19%
same,patients with prolonged PACU stay due to RD,[2]; 263 patients,11%
same,Prolonged PACU due to RD %,"[2]; Blacks, ABCB1 rs1045642 CC, N=27",7%
same,Prolonged PACU due to RD %,"[2]; Blacks, ABCB1 rs1045642 TC, N=14",21%
same,Prolonged PACU due to RD %,"[2]; Blacks, ABCB1 rs1045642 TT, N=3",33%
same,Prolonged PACU due to RD %,"[2]; Blacks, ABCB1 rs1128503 CC, N=24",8%
same,Prolonged PACU due to RD %,"[2]; Blacks, ABCB1 rs1128503 TC, N=18",17%
same,Prolonged PACU due to RD %,"[2]; Blacks, ABCB1 rs1128503 TT, N=2",50%
same,Prolonged PACU due to RD %,"[2]; Blacks, ABCB1 rs2032582 GA, N=1",0%
same,Prolonged PACU due to RD %,"[2]; Blacks, ABCB1 rs2032582 GG, N=35",11%
same,Prolonged PACU due to RD %,"[2]; Blacks, ABCB1 rs2032582 GT, N=8",25%
same,Prolonged PACU due to RD %,"[2]; Blacks, ABCB1 rs2229109 CA, N=1",0%
same,Prolonged PACU due to RD %,"[2]; Blacks, ABCB1 rs2229109 CC, N=43",14%
same,Prolonged PACU due to RD %,"[2]; Blacks, ABCB1 rs9282564 AA, N=41",10%
same,Prolonged PACU due to RD %,"[2]; Blacks, ABCB1 rs9282564 GA, N=3",67%
same,Prolonged PACU due to RD %,"[2]; Whites, ABCB1 rs1045642 CC, N=49",4%
same,Prolonged PACU due to RD %,"[2]; Whites, ABCB1 rs1045642 TC, N=100",15%
same,Prolonged PACU due to RD %,"[2]; Whites, ABCB1 rs1045642 TT, N=70",10%
same,Prolonged PACU due to RD %,"[2]; Whites, ABCB1 rs1128503 CC, N=70",9%
same,Prolonged PACU due to RD %,"[2]; Whites, ABCB1 rs1128503 TC, N=102",13%
same,Prolonged PACU due to RD %,"[2]; Whites, ABCB1 rs1128503 TT, N=47",11%
same,Prolonged PACU due to RD %,"[2]; Whites, ABCB1 rs2032582 GA, N=7",0%
same,Prolonged PACU due to RD %,"[2]; Whites, ABCB1 rs2032582 GG, N=65",9%
same,Prolonged PACU due to RD %,"[2]; Whites, ABCB1 rs2032582 GT, N=100",14%
same,Prolonged PACU due to RD %,"[2]; Whites, ABCB1 rs2032582 TA, N=1",0%
same,Prolonged PACU due to RD %,"[2]; Whites, ABCB1 rs2032582 TT, N=46",9%
same,Prolonged PACU due to RD %,"[2]; Whites, ABCB1 rs2229109 CA, N=14",14%
same,Prolonged PACU due to RD %,"[2]; Whites, ABCB1 rs2229109 CC, N=205",11%
same,Prolonged PACU due to RD %,"[2]; Whites, ABCB1 rs9282564 AA, N=171",8%
same,Prolonged PACU due to RD %,"[2]; Whites, ABCB1 rs9282564 GA, N=46",20%
same,Prolonged PACU due to RD %,"[2]; Whites, ABCB1 rs9282564 GG, N=2",100%
